Data taken from patent US20150098983A1, “Methods and Compositions for Treating Withdrawal Syndromes Using Non-Sedative Dexmedetomidine Transdermal Compositions” (Teikoku Pharma USA, Inc., priority 2013, published 2015).
Where two headings read alike, the source gives them in different places.

Cc1cccc([C@H](C)c2cnc[nH]2)c1C [Dexmedetomidine]
solubility of dexmedetomidine (in Duro-Tak 87-2979): less than 2%
solubility of dexmedetomidine (in Duro-Tak 387/87-2353 (acid functionalized acrylate adhesive)): 10-15%
solubility of dexmedetomidine (in hydroxyl functionalized acrylate polymer): less than 1%
solubility of dexmedetomidine (in lauryl lactate): 5 to 10%
solubility of dexmedetomidine (in levulinic acid): ~60%
solubility of dexmedetomidine (in oleic acid): ~40%
solubility of dexmedetomidine (in propylene glycolmonolaurate): 5 to 10%
